{
  "source": "patent US9968582B2",
  "about": "“Use of a benzoate containing composition in urea cycle disorders and neurodegenerative disorders” (Rush University Medical Center, priority 2014, dated 2018)",
  "key": {"[1]": {"tested_on": "DJ-1", "experiment": "MPTP mouse model of PD, Western blot of DJ-1 in the nigra", "format": "in vivo, mice", "conditions": "MPTP intoxication; FIG. 9A-B", "description": "(§1) Six- to eight-week old C57BL/6 mice were purchased from Harlan (Indianapolis, Ind.). For acute MPTP intoxication, mice received four intraperitoneal (i.p.) injections of MPTP-HCl (18 mg/kg of free base; Sigma Chemical Co., St. Louis, Mo.) in saline at 2-h intervals. Control animals received only saline.\n(§2) GTB was mixed in 0.5% methylcellulose (MC) and from 3 h after the last injection of MPTP, mice were gavaged 100 μL GTB-mixed MC once daily using gavage needle. Therefore, control MPTP mice received only MC as vehicle.\n(§3) Immunoblot analysis for DJ-1 and TH was carried out. Briefly, cell homogenates were electrophoresed, proteins were transferred onto a nitrocellulose membrane, and bands were visualized with an Odyssey infrared scanner after immunolabeling with respective primary antibodies followed by infra-red fluorophore-tagged secondary antibody (Invitrogen).\nUpregulation and/or maintenance of PD-related beneficial protein such as DJ-1 in the nigra during neurodegenerative insults may have therapeutic efficacy in PD."}, "[2]": {"tested_on": "dopamine (DA) in the striata", "experiment": "MPTP mouse model of PD, HPLC of striatal dopamine", "format": "in vivo, mice", "conditions": "MPTP intoxication compared to saline-injected control mice, 7 days; FIG. 10", "description": "as §1, §2\nStriatal level of dopamine was quantified in Complete Stand-Alone HPLC-ECD System EiCOMHTEC-500 (JM Science Inc., Grand Island, N.Y.). Briefly, mice were sacrificed by cervical dislocation after 7 days of MPTP intoxication and their striata were collected and immediately frozen in dry ice and stored at −80° C. until analysis. On the day of the analysis, tissues were sonicated in 0.2M perchloric acid containing isoproterenol and resulting homogenates were centrifuged at 20,000×g for 15 min at 4 C. After pH adjustment and filtration, 10 μl of supernatant was injected onto an Eicompak SC-3ODS column (Complete Stand-Alone HPLC-ECD System EiCOMHTEC-500 from JM Science Inc., Grand Island, N.Y.) and analyzed following the manufacturer's protocol.\nNext, to determine whether GTB protects against biochemical deficits caused by MPTP, the inventor quantified levels of dopamine (DA) in the striata 7 days after the MPTP treatment. As evident from FIG. 10, MPTP intoxication led to about 75% decrease in striatal DA compared to striata of saline-injected control mice."}, "[3]": {"tested_on": "Tyrosine hydroxylase (TH)", "experiment": "MPTP mouse model of PD, Western blot of nigral TH", "format": "in vivo, mice", "conditions": "MPTP intoxication compared with saline-injected controls; FIG. 9A-B", "description": "as §1, §2, §3\nTyrosine hydroxylase (TH), the key enzyme responsible for the production of dopamine, is present in dopaminergic neurons. MPTP-intoxication led to approximately 60% loss of nigral TH (FIG. 9A-B) compared with saline-injected controls."}, "[4]": {"tested_on": "BDNF", "conditions": "brain cells; cited from earlier work"}, "[5]": {"tested_on": "DJ-1", "conditions": "astrocytes and neurons (cited title); cited from earlier work"}, "[6]": {"tested_on": "disease process of multiple sclerosis (MS) in mice", "conditions": "cited from earlier work"}, "[7]": {"tested_on": "NT-3", "conditions": "brain cells; cited from earlier work"}, "[8]": {"conditions": "in vivo; cited from earlier work"}},
  "data": [
    {"smiles": "CN1CC=C(c2ccccc2)CC1", "note": "[MPTP, reference compound]", "values": [
      {"measurement": "level of DJ-1 in the nigra", "setting": "[1]", "value": "decreased the level of DJ-1"},
      {"measurement": "decrease in striatal DA", "setting": "[2]", "value": "about 75%"},
      {"measurement": "loss of nigral TH", "setting": "[3]", "value": "approximately 60%"}
    ]},
    {"smiles": "O=C([O-])c1ccccc1.[Na+]", "note": "[sodium benzoate]", "values": [
      {"measurement": "production of BDNF", "setting": "[4]", "value": "increases the production"},
      {"measurement": "DJ-1 protein", "setting": "[5]", "value": "up-regulates"},
      {"measurement": "disease process of multiple sclerosis (MS)", "setting": "[6]", "value": "suppresses the disease process"},
      {"measurement": "production of NT-3", "setting": "[7]", "value": "increases the production"},
      {"measurement": "metabolism and excretion", "setting": "[8]", "value": "quickly metabolized and excreted from the body"}
    ]}
  ]
}
